{
  "source": "ChEMBL document CHEMBL4118241",
  "about": "“Structural basis for the selective inhibition of activated thrombin-activatable fibrinolysis inhibitor (TAFIa) by a selenium-containing inhibitor with chloro-aminopyridine as a basic group” (Bioorg Med Chem Lett, 2018)",
  "key": {"[1]": {"molecular_target": "T1, Carboxypeptidase N catalytic chain (Homo sapiens, UniProt P15169)", "T1 sequence (P15169 whole entry)": "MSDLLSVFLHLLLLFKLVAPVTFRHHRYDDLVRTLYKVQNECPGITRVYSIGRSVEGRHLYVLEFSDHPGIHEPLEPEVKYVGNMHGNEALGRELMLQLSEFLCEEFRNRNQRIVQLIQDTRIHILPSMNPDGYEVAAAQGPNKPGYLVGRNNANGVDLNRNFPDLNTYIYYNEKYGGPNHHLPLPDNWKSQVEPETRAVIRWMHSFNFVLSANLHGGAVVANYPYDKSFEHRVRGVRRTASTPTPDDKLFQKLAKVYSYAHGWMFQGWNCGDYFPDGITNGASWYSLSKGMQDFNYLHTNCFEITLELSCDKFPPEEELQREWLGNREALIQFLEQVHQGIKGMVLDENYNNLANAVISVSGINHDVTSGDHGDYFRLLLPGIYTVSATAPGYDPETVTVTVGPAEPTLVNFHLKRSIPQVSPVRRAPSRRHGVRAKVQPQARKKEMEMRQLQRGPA", "assay": "Inhibition of human carboxypeptidase N preincubated for 10 mins followed by hippuryl-lysine substrate addition measured after 30 mins in presence of DTT"}, "Homo sapiens": {"species": "Homo sapiens", "assay": "Selectivity ratio of IC50 for human carboxypeptidase N to IC50 for human plasma activated thrombin-activatable fibrinolysis inhibitor"}, "Carboxypeptidase B2 [2]": {"molecular_target": "T2, Carboxypeptidase B2 (Homo sapiens, UniProt Q96IY4)", "T2 sequence (Q96IY4 whole entry)": "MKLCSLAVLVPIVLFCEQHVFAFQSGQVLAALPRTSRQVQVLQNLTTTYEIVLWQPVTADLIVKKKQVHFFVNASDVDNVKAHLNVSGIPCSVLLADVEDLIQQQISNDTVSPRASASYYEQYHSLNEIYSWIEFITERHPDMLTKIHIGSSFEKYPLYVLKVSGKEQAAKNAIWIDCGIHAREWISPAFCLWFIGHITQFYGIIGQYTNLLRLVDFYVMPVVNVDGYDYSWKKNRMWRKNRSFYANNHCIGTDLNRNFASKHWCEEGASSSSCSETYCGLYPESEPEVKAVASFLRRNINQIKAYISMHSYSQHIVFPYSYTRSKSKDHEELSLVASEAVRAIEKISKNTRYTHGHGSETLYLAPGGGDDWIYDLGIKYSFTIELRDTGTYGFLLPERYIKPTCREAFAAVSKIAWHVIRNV", "assay": "Inhibition of human plasma activated thrombin-activatable fibrinolysis inhibitor after 10 mins in absence of DTT"}, "[3]": {"molecular_target": "T1, Carboxypeptidase N catalytic chain", "assay": "Inhibition of human carboxypeptidase N preincubated for 10 mins followed by hippuryl-lysine substrate addition measured after 30 mins in absence of DTT"}, "Carboxypeptidase B [4]": {"molecular_target": "T3, Carboxypeptidase B (Sus scrofa, UniProt P09955)", "T3 sequence (P09955 whole entry)": "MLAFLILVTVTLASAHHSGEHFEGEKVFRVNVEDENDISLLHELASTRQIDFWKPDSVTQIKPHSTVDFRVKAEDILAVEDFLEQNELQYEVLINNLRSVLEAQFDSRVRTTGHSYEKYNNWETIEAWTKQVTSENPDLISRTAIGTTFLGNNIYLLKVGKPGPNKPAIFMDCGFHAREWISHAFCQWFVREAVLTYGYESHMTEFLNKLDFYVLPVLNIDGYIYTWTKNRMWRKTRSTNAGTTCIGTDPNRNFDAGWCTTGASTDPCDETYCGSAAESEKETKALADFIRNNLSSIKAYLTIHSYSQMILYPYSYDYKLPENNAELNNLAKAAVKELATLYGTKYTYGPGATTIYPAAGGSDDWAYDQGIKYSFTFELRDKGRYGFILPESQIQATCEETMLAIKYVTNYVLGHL", "assay": "Inhibition of porcine pancreas carboxypeptidase B after 10 mins in presence of DTT"}, "Carboxypeptidase B2 [5]": {"molecular_target": "T2, Carboxypeptidase B2", "assay": "Inhibition of human plasma activated thrombin-activatable fibrinolysis inhibitor after 10 mins in presence of DTT"}, "Carboxypeptidase B [6]": {"molecular_target": "T3, Carboxypeptidase B", "assay": "Inhibition of porcine pancreas carboxypeptidase B after 10 mins in absence of DTT"}},
  "data": [
    {"smiles": "CCC(=O)[Se]CC(Cc1cnc(N)c(Cl)c1)C(=O)O", "note": "(racemic)", "values": [
      {"measurement": "IC50", "setting": "[1]", "result": "> 380", "unit": "µM"},
      {"measurement": "Ratio IC50", "setting": "Homo sapiens", "result": "> 250000"},
      {"measurement": "IC50", "setting": "Carboxypeptidase B2 [2]", "result": 370, "unit": "µM"},
      {"measurement": "IC50", "setting": "[3]", "result": "> 380", "unit": "µM"},
      {"measurement": "IC50", "setting": "Carboxypeptidase B [4]", "result": 29, "unit": "nM"},
      {"measurement": "IC50", "setting": "Carboxypeptidase B2 [5]", "result": 1.5, "unit": "nM"},
      {"measurement": "IC50", "setting": "Carboxypeptidase B [6]", "result": 2500, "unit": "nM"}
    ]}
  ]
}
